According to patent US4731373A, “Glycerin derivatives and inhibition of blood PAF” (Hoffman-La Roche Inc., priority 1983, dated 1988):

These molecules were tested on blood platelet activating factor (PAF) (assay: Inhibition of PAF-induced platelet aggregation in platelet-rich plasma (aggregometer)). Settings: rabbit platelet-rich plasma, 37° C., stirring; test substance added 2 minutes before PAF (4 nM, sub-maximum dosage); read-out: IC50 (concentration of the test substance which reduces to a half the aggregation of the blood platelets brought about by PAF).
Format: cell-based
Procedure: The aggregation of the blood platelets was measured with the aid of an aggregometer at 37° C. while stirring. […] The IC50 value (in μM) given in the following Table corresponds to that concentration of the test substance which reduces to a half the aggregation of the blood platelets brought about by PAF.

Molecule | IC50 [nM]
CCCCCCCCCCCCCCCCCCOC[C@H](COC(=O)CCC[n+]1ccccc1)OC(=O)NC [Example 1, 1-[3-[[(R)-2-[(methylcarbamoyl)oxy]-3-(octadecyloxy)propoxy]carbonyl]-propyl]pyridinium chloride] | 1600
1-[3-[[[(RS)-2-(1-methoxyformamido)-3-(octadecyloxy)propoxy]carbonyl]oxy]propyl]pyridinium chloride [Example 16] | 1500
CCCCCCCCCCCCCCCCCCOC[C@H](COC(=O)OCC[n+]1ccccc1)OC(=O)NC [Example 3, 1-[2-[[[(R)-2-[(methylcarbamoyl)oxy]-3-(octadecyloxy)propoxy]carbonyl]oxy]ethyl]pyridinium bromide] | 3000
CCCCCCCCCCCCCCCCCCNC(=O)OCC(COC(=O)OCC[n+]1ccccc1)OC (racemic) [Example 7b, 1-[2-[[[(RS)-2-methoxy-3-[(octadecylcarbamoyl)oxy]propoxy]carbonyl]oxy]ethyl]pyridinium bromide] | 1600
CCCCCCCCCCCCCCCCCCNC(=O)OC[C@H](COC(=O)OCC[n+]1ccccc1)OC(=O)OC [Example 11, 1-[2-[[[(R)-2-[(methoxycarbonyl)oxy]-3-(octadecylcarbamoyl)oxy]propoxy]carbonyl]oxy]ethyl]pyridinium bromide] | 600
CCCCCCCCCCCCCCCCCCNC(=O)OCC(COC(=O)NCC[n+]1ccccc1)OC (racemic) [Example 7a, 1-[2-[1-[(RS)-2-methoxy-3-(octadecylcarbamoyloxy)propoxy]formamido]ethyl]pyridinium chloride] | 2000
CCCCCCCCCCCCCCCCCCOCC(COC(=O)CC[n+]1ccccc1)NC(=O)OC (racemic) [Example 15] | 3000
CCCCCCCCCCCCCCCCCCOC[C@H](COC(=O)OCC[n+]1ccccc1)OC(=O)OC [Example 10, 1-[2-[[(R)-2-[(methoxycarbonyl)oxy]-3-(octadecyloxy)propoxy]carbonyl]oxy]ethyl]pyridinium bromide] | 3000
CCCCCCCCCCCCCCCCCCOC[C@H](COC(=O)OCC[n+]1ccsc1)OC(=O)OC [Example 12, 3-[2-[[[(R)-2-[(methoxycarbonyl)oxy]-3-(octadecyloxy)propoxy]carbonyl]oxy]ethyl]thiazolium bromide] | 2000

These reach a lower IC50. Values come first.

IC50 [nM] | Molecule
200 | CCCCCCCCCCCCCCCCCCNC(=O)OC[C@H](COC(=O)CCC[n+]1ccccc1)OC(=O)OC [Example 21d, 1-[3-[[(S)-2-[(methoxycarbonyl)oxy]-3-[(octadecylcarbamoyl)oxy]propoxy]carbonyl]propyl]pyridinium iodide]
400 | CCCCCCCCCCCCCCCCCCOC(=O)NCC(COC(=O)CCC[n+]1ccccc1)OC(=O)OC (racemic) [Example 26, 1-[3-[[(RS)-2-[(methoxycarbonyl)oxy[-3-[1-(octadecyloxy)-formamido]propoxy]carbonyl]propyl]pyridinium chloride]
250 | CCCCCCCCCCCCCCCCCCNC(=O)OCC(COC(=O)CCC[n+]1ccsc1)OC (racemic) [Example 20b, 3-[3-[[(RS)-2-methoxy-3-[(octadecylcarbamoyl)oxy]propoxy]carbonyl]propyl]thiazolium chloride]
60 | CCCCCCCCCCCCCCCCCCNC(=O)OC[C@H](COC(=O)CCC[n+]1ccsc1)OC(=O)OC [Example 21f, 3-[3-[[(S)-2-[(methoxycarbonyl)oxy]-3-[(octadecylcarbamoyl)oxy]propoxy]carbonyl]propyl]thiazolium iodide]
150 | CCCCCCCCCCCCCCCCCCNC(=O)OCC(COC(=O)CCC[n+]1ccsc1)NC(=O)OC (racemic) [Example 24, 1-[3-[[(RS)-2-(1-methoxyformamido)-3-(octadecylcarbamoyloxy)propoxy]carbonyl]propyl]thiazolium chloride]
40 | CCCCCCCCCCCCCCCCCCNC(=O)OC[C@@H](COC(=O)CCC[n+]1ccsc1)OC(=O)OC [Example 21e, 3-[3-[[(R)-2-[(methoxycarbonyl)oxy]-3-[(octadecylcarbamoyl)oxy]propoxy]carbonyl]propyl]thiazolium iodide]
150 | CCCCCCCCCCCCCCCCCCNC(=O)OCC(COC(=O)CCC[n+]1ccccc1)OC(=O)OC (racemic) [Example 21a, 1-[3-[[(RS)-2-[(methoxycarbonyl)oxy]-3-[(octadecylcarbamoyl)oxy]propoxy]carbonyl]propyl]pyridinium chloride]
200 | CCCCCCCCCCCCCCCCCCNC(=O)OC[C@@H](COC(=O)CCC[n+]1ccccc1)OC(=O)OC [Example 21b, 1-[3-[[(R)-2-[(methoxycarbonyl)oxy]-3-[(octadecylcarbamoyl)oxy]propoxy]carbonyl]propyl]pyridinium chloride]
